Source: patent publication US10336752B2, “TYK2 inhibitors, uses, and methods for production thereof” (Nimbus Lakshmi, Inc., priority 2017, dated 2019)
Values after ≈ are worked out from the molar mass of the structure shown.

What was measured:
[1] = CACO-2 Cell Permeability Assay; format: in vitro ADME; settings: human, Caco-2, pH 7.4, apical to basolateral
Description: Caco-2 cells were diluted to 6.86×10^5 cells/mL with culture medium and 50 μL of cell suspension were dispensed into the filter well of the 96-well HTS Transwell plate. Cells were cultivated for 14˜18 days in a cell culture incubator at 37° C., 5% C02, 95% relative humidity. Cell culture medium was replaced every 2 days, beginning no later than 24 hours after initial plating. 3) After 14˜18 days incubation, the plates were removed from incubator. The inserts were washed twice with pre-warmed HBSS (10 mM HEPES, pH 7.4) and placed into receiver plates. 75 μL and 235 μL of buffer were added to each Transwell inserts and receiver wells, respectively. Then the plates were incubated for 30 min at 37° C. with shaking at 150 rpm. Stock solutions of control compound were prepared in DMSO at 10 mM and then diluted to 1 mM with DMSO followed by further diluting with HBSS (10 mM HEPES, pH 7.4) to get compound working solution. Stock solutions of test compound were prepared in DMSO at 10 mM and then diluted to 1 mM with DMSO followed by further diluting with HBSS (10 mM HEPES, pH 7.4, 4% BSA) to get compound working solution. The final concentration of test compound and control compound was 5 μM. To determine the rate of drug transport in the apical to basolateral direction, 75 μL of compound working solution was added to the filter well (apical compartment) and 235 μL of HBSS (10 mM HEPES, pH 7.4, or 4% BSA) to receiver plate (basolateral compartment). To determine the rate of drug transport in the basolateral to apical direction, 235 μL of compound working solution was added to each well of the receiver plate (basolateral compartment) and 75 μL of HBSS (10 mM HEPES, pH 7.4, or 4% BSA) to filter well (apical compartment). The assay was performed in duplicate. 6) Plates were incubated for 2 hours at 37° C. At the end of the transport period, aliquots of 50 μL were removed directly from the apical and basolateral wells and transferred to wells of new plates. Four volumes of cold Methanol containing internal standards (IS, 100 nM Alprazolam, 200 nM Labetalol and 200 nM Diclofenac) was added into each well. Samples were centrifuged at 3,220 g for 30 minutes. An aliquot of 100 μL of the supernatant mixed with 100 μL of ultra-pure water were used for LC-MS/MS analysis. 7) Solution was discarded from Transwell plates. 100 μL of Lucifer Yellow solution (100 μM in HBSS) and 300 μL of HBSS were added into each well of Transwell insert and receiver, respectively, for leakage determination. Plates were incubated at 37° C. for 30 minutes. 80 μL aliquots from wells of apical and basolateral sides were transferred to solid black plates and the plate was read with Tecan Infinite M 200 (Excitation/Emission wavelength 485 nm/530 nm). The liquid fractions, apical and basolateral layers were analyzed by LC-MS to determine Papp(A-B), Papp(B-A) and recovery.

TYK2 = TYK2 (Homo sapiens (Human), UniProt P29597); assay: 1 mM ATP Tyk2 Caliper Assay; format: biochemical; settings: ATP 1000 uM
Description: Compounds were serially diluted in DMSO then further diluted in 1x kinase buffer: 5 uL of buffer diluted compound was added into wells first, then 10 uL of Tyk2 enzyme mix was added into wells, followed by 10 uL of substrate mix to start reaction. Reaction was incubated at 28° C. for 25 min and then added 25 uL stop buffer. The reaction mixture was read by a Caliper […]. Final concentrations for assay conditions were: 25 mM HEPES, pH 7.5, 0.01% Brij-35, 0.01% Triton, 0.5 mM EGTA, 2 mM DTT, 10 mM MgCl2, TYK2 4 nM, ATP concentration 1000 uM, and P30 3 uM.

[2] = Kinetic Solubility Determination Assay; format: physicochemical; settings: aqueous buffer, kinetic from dmso stock, PBS pH 7.4, RT, read-out: Kin. Sol. pH 7.4
Description: Stock solutions of test compounds were prepared in DMSO at the concentration of 10 mM. The stock solutions of positive control compound were prepared in DMSO at the concentration of 30 mM. Progesterone was used as positive control in the assay. 30 μL stock solution of each compound was placed in order into their proper 96-well rack, followed by adding 970 μL of PBS at pH 7.4 into each vial of the cap-less solubility sample plate. This study was performed in duplicate. One stir stick was added to each vial and then vials were sealed using a molded PTDE/SIL 96-Well Plate Cover. The Solubility Sample plate was transferred to the Thermomixer Comfort plate shaker and incubated at RT for 2 hours with shaking at 1100 rpm. After 2 hours incubation, stir sticks were removed using a big magnet and all samples from the Solubility Sample plate were transferred into the filter plate. All the samples were filtered by using the vacuum manifold. The filtered samples were diluted with methanol. Standards of each test compound were prepared at 0.3, 0.09 and 0.1 μM concentrations and both the test samples and standards were analyzed by LC-MS and the test samples were quantified against a standard of known concentration in DMSO using mass spectral peak identification and quantitation.

[3] = Solid form stability of Compound 1 mesylate forms; format: physicochemical; settings: for solid form stability at ambient conditions: drying / ambient conditions
[4] = Metabolic Clearance Assay in Microsomes (human liver microsomes); format: in vitro ADME; settings: NADPH and UDPGA, read-out: HLM Clint
Description: A master solution was prepared containing 0.5 mg/mL of either rat or human liver microsomes, 5 mM MgCl2, 100 mM phosphate buffer, and 25 ug/mL alamethacin. 40 μL of 10 mM NADPH solution and 40 μL of 20 mM UDPGA solution were added to each well. The final concentrations of NADPH and UDPGA were 1 mM and 2 mM, respectively. The mixture was pre-warmed at 37° C. for 5 minutes. The negative control samples were prepared by replacing NADPH and UDPGA solutions with 80 μL of ultra-pure H2O. The negative control was used to exclude the misleading factor that resulted from instability of chemical itself. This study was performed in duplicate. The reaction was started with the addition of 2 μL of 400 μM control compound or test compound solutions. Diclofenac was used as positive control in this study. The final concentration of test compound or control compound was 2 μM. Aliquots of 50 μL were taken from the reaction solution at 0, 15, 30, 45 and 60 minutes. The reaction was stopped by the addition of 4 volumes of cold acetonitrile (or methanol) with internal standard (IS) (100 nM alprazolam, 200 nM imipramine, 200 nM labetalol and 2 μM ketoprofen) at the designated time points. Samples were centrifuged at 3,220 g for 40 minutes to precipitate protein. Aliquot of 100 μL supernatant diluted by 100 μL of water was used for LC-MS/MS analysis. The in vitro half-life, scale-up intrinsic clearance, and predicted hepatic clearance were calculated according to standard calculations.

[5] = Pharmacokinetic Study in Dogs; format: in vivo; settings: male, Beagle; dog, oral gavage 10 mg/kg, 20% HPβCD aq., plasma
Description: Male Beagle dogs (9-14 kg; 2.5 to 5.5 years of age) housed one per cage under standard laboratory conditions were fasted for approximately 16 to 17 hours prior to dosing with food returned approximately 2 hours after dosing. […] Blood samples were collected from the jugular vein (˜1.5 mL) by venipuncture, and stored in tubes treated with K2EDTA, then centrifuged (3000 g, 4° C., 5 min). The plasma samples were transferred and stored at −70° C. until analysis. Bioanalysis: Concentrations for experimental samples and plasma calibration standards were determined by LC/MS/MS (API-5500, reverse-phase chromatography, APCI) following extraction by plasma precipitation with cold acetonitrile (4:1 ACN/plasma by volume) containing verapamil as an internal standard. PK Analysis: The individual animal plasma concentration-time data was analyzed by noncompartmental analysis (linear trapazoidal fitting) using PK Solver software (v2.0).

[6] = Dissolution Assay in Fasted Simulated Gastric Fluid; format: physicochemical; settings: 37° C., 50 rpm, compressed disc
Description: The dissolution bath was filled with 900 mL of media for testing, the bath temperature held at 37° C., the rotation rate of the apparatus was 50 rpm, the draw point for the sampling probe was set exactly halfway between the surface of the media and the surface of the disc. The test article (0.4 g) was compressed into a disc using a Woods apparatus. The sampling time points were 10, 30, 60, 90, 120, 150 & 180. The samples were analysed by HPLC for concentration against a sample preparation of known concentration (ca. 0.5 mg/ml). Dissolution rate was derived from the curve of concentration against time.

Sequence of TYK2 (P29597 whole entry): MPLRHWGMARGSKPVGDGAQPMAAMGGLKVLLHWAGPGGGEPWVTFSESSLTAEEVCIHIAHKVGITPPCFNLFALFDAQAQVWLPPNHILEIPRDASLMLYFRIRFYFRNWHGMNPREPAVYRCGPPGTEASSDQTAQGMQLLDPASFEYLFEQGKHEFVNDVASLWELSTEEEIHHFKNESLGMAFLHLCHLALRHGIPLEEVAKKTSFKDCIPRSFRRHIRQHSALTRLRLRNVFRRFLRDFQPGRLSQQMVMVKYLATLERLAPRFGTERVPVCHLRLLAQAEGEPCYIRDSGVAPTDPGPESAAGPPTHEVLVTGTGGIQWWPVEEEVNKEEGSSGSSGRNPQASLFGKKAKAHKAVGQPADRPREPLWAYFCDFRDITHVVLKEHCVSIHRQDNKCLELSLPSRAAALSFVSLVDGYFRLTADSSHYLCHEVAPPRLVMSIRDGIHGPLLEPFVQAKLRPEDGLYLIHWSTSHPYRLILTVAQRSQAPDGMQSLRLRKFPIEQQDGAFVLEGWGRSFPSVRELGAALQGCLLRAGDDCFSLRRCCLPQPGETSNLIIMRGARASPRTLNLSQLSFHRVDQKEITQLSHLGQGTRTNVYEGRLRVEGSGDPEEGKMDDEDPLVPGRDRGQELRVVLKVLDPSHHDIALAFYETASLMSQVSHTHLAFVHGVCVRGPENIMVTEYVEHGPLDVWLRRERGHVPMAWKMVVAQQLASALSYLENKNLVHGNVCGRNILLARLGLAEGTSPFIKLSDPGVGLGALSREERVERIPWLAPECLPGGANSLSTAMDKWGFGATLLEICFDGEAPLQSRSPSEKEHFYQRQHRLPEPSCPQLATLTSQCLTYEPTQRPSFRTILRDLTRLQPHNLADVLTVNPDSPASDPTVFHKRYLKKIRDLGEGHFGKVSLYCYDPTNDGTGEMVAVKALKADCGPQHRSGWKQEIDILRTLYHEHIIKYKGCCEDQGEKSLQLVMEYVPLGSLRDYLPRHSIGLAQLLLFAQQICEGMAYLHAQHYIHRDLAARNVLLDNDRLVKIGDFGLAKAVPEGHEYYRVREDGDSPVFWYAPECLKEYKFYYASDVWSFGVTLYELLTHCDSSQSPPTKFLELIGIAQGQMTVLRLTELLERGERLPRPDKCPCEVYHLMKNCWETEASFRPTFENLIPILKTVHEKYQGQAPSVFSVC

| SMILES | Papp A→B at 2 h, 5 μM [1] [×10⁻⁶ cm/s] | IC50 (TYK2) [nM] | solubility kinetic at 2 h [2] [µM] | solid form stability at ambient conditions [3] | CLint scaled at 2 μM [4] [mL/min/kg] | solid form stability upon grinding ([3]; grinding) | AUC(0-t) [5] [ng·h/mL] | Cmax [5] [ng/mL] | dissolution rate in Fasted Simulated Gastric Fluid (FaSSGF) [6] [μg/cm^2/min] |
| --- | --- | --- | --- | --- | --- | --- | --- | --- | --- |
| N#Cc1cccc(F)c1-c1cc(Nc2ccc(C(=O)N3CCOCC3)cc2)c2c(n1)CNC2=O [Compound 14] | 2.08 | 24.2 | 271 (≈ 124 µg/mL) | – | – | – | – | – | – |
| O=C1NCc2nc(-c3c(F)cccc3F)cc(Nc3ccc(C(=O)N4C[C@H]5COC[C@H]5C4)cc3)c21 [Compound 17] | 1.52 | 88.6 | 205 (≈ 97.5 µg/mL) | – | – | – | – | – | – |
| O=C1NCc2nc(-c3c(F)cccc3F)cc(Nc3ccc(N4CCCC4)cn3)c21 [Compound 7] | 13.5 | 390 | < 0.5 | – | 10.9 | – | – | – | – |
| CCN(CC)C(=O)c1ccc(Nc2cc(-c3c(F)cccc3F)nc3c2C(=O)NC3)cc1 [Compound 11] | 5.62 | 119 | 1.86 (≈ 0.812 µg/mL) | – | – | – | – | – | – |
| O=C1NCc2nc(-c3c(F)cccc3F)cc(Nc3ccc(C(=O)N4CCOCC4)nc3)c21 [Compound 13] | 2.89 | – | 252 (≈ 114 µg/mL) | – | 1.9 | – | – | – | – |
| O=C1NCc2nc(-c3c(F)cccc3F)cc(Nc3ccc(C(=O)N4CCOCC4)cc3)c21 [Compound 9] | 3.43 | 134 | 172 (≈ 77.3 µg/mL) | – | 3 | – | 10200 | 1070 | 21.2 |
| O=C1NCc2nc(-c3c(F)cccc3F)cc(Nc3ccc(N4CCOCC4)cn3)c21 [Compound 8] | 13.1 | 33 | 11.9 (≈ 5.05 µg/mL) | – | 1.2 | – | – | – | – |

Now from value to molecule, other results behind:

| Papp A→B at 2 h, 5 μM [1] [×10⁻⁶ cm/s] | IC50 (TYK2) [nM] | solubility kinetic at 2 h [2] [µM] | solid form stability at ambient conditions [3] | CLint scaled at 2 μM [4] [mL/min/kg] | solid form stability upon grinding ([3]; grinding) | SMILES | AUC(0-t) [5] [ng·h/mL] | Cmax [5] [ng/mL] | dissolution rate in Fasted Simulated Gastric Fluid (FaSSGF) [6] [μg/cm^2/min] |
| --- | --- | --- | --- | --- | --- | --- | --- | --- | --- |
| – | – | – | stable | – | – | CS(=O)(=O)O.O=C1NCc2nc(-c3c(F)cccc3F)cc(Nc3ccc(C(=O)N4CCCC4)cc3)c21 [Form IV of Compound 1 mesylate] | – | – | – |
| – | – | – | transition to Form IV | – | – | CS(=O)(=O)O.O=C1NCc2nc(-c3c(F)cccc3F)cc(Nc3ccc(C(=O)N4CCCC4)cc3)c21 [Form III of Compound 1 mesylate] | – | – | – |
| 4.03 | 90 | 1.45 (≈ 0.65 µg/mL) | – | 7.81 | – | O=C1NCc2nc(-c3c(F)cccc3F)cc(Nc3ccc(C(=O)N4CCCCC4)cc3)c21 [Compound 10] | – | – | – |
| – | – | – | – | – | transition to Form I | CS(=O)(=O)O.O=C1NCc2nc(-c3c(F)cccc3F)cc(Nc3ccc(C(=O)N4CCCC4)cc3)c21 [Form V of Compound 1 mesylate] | – | – | – |
| 7.59 | 74.1 | 3.75 (≈ 1.58 µg/mL) | – | 1.78 | – | O=C1NCc2nc(-c3c(F)cccc3F)cc(Nc3ccc(C(=O)N4CCC4)cc3)c21 [Compound 15] | – | – | – |
| 0.41 | 136 | 237 (≈ 113 µg/mL) | – | – | – | CC1(O)CCN(C(=O)c2ccc(Nc3cc(-c4c(F)cccc4F)nc4c3C(=O)NC4)cc2)CC1 [Compound 12] | – | – | – |
| 2.63 | 17.7 | 32.9 (≈ 14.5 µg/mL) | – | – | – | N#Cc1cccc(F)c1-c1cc(Nc2ccc(C(=O)N3CCCC3)cc2)c2c(n1)CNC2=O [Compound 16] | – | – | – |
| 5.77 | – | 274 (≈ 119 µg/mL) | – | 0.62 | – | O=C1NCc2nc(-c3c(F)cccc3F)cc(Nc3ccc(C(=O)N4CCCC4)cc3)c21 [Compound 1] | 18700 | 2100 | 57.5 |
